How the values were obtained:
[1] = tested on: neuraminidase (NA) of A(H1N1)pdm09 viruses; settings: cited from earlier work
[2] = tested on: neuraminidase (NA) of A(H1N1)pdm09 viruses; format: biochemical, influenza A(H1N1)pdm09 virus
[3] = tested on: neuraminidase (NA) of B/Yamagata-lineage viruses; format: biochemical, influenza B/Yamagata-lineage virus

Row | SMILES | effect on inhibition (IC50 fold) [1] | IC50 fold-change of viruses exhibiting RI/HRI [2] | inhibition phenotype in NAI assay (NI/RI/HRI) [3]
1 | CCOC(=O)C1=C[C@@H](OC(CC)CC)[C@H](NC(C)=O)[C@@H](N)C1 [Oseltamivir, oseltamivir] | 5- to 8 fold |  | 
2 | CCC(CC)[C@H](NC(C)=O)[C@@H]1[C@H](O)[C@@H](C(=O)O)C[C@H]1N=C(N)N [Peramivir, peramivir] |  | 10- to 6270 fold | borderline RI
3 | CC(=O)N[C@H]1[C@H]([C@H](O)[C@H](O)CO)OC(C(=O)O)=C[C@@H]1N=C(N)N [Zanamivir, zanamivir] |  |  | borderline RI

Reference: paper PMC5667636 (Antiviral Research, 2017)
